# Bridge positions count the residues as written; N and C are the ends. Square brackets hold non-standard residues; d marks the D form. Peptide text beside a SMILES is read from it. R8 = C=CCCCCCC[C@@](C)(N)C(=O)O; S5 = C=CCCC[C@](C)(N)C(=O)O; Nle = CCCC[C@H](N)C(=O)O
# Biological target: T1, flag-tagged HIF1α (AA 786-826) / His6-tagged p300 (AA 323-423) complex (Homo sapiens, UniProt Q09472)
# T1 construct: His6-tagged p300 (AA 323-423); made in house; host or cells: E. coli (pETDuet vector)
# Assay: HIF1α p300 displacement assay (TR FRET, +CHAPS)
# Type: binding
# Conditions: read-out: IC50 (nM) (HIF1α_p300 Displacement + CHAPS)
# Experimental: The ability of peptides to displace HIF1α c-terminal trans-activation domain from p300-CH was measured by a TR FRET assay. A complex of flag-tagged HIF1α (AA 786-826) and His6-tagged p300 (AA 323-423) was co-expressed using pETDuet vector (EMDMillipore, Bellrica Mass.) and purified from E. coli in the presence of 0.1 mM ZnSO4. The complex was diluted to 300 nM final in complete assay media and competitor peptides were added. The complete assay media contained 150 mM NaCl (Sigma +S5150 or equivalent), 20 mM HEPES pH 7.4 (Boston Bioproducts, Ashland, Mass.; #BB-2076), 7.5 mM CHAPS (Thermo #28300 or equivalent), and 1 mM DTT. Protein and peptide were incubated at room temperature for 1 hour before the addition of anti-Flag-K and anti-6×HIS-D2 (CisBio, Bedford Mass.) HTRF reconstitution buffer (50 mM Phosphate pH 7, 0.8 Potassium Flouride, BSA 0.2%)^1 to a final concentration of 0.5 μM and 4 nM respectively. The reaction continued for an additional two hours at room temperature. The reaction was read on a TECAN F500 plate reader with settings recommended by CisBio. The ratio of donor to acceptor fluorescence was calculated. The resulting data was analyzed with Graphpad Prism 5.0. IC50 values were calculated for both proteins using the One Site Fit-LogIC50 equation and presented in the column “IC50 (nM) (HIF1α_p300 Displacement+CHAPS)” of Table 6. ^1 Cisbio USA, Bedford, Mass.; 61HISDLB (lot 007A), 61FG2KLB (024A), HTRF Buffer (62RB3RDF)
row,Compound,IC50 [nM]
1,"CCCC[C@H](NC(=O)[C@H](CCC(=O)O)NC(=O)[C@]1(C)CCCC=CCCCCCC[C@@](C)(NC(=O)[C@H](C)NC(=O)[C@H](C)NC(=O)[C@@H](NC(=O)[C@H](CC(N)=O)NC(=O)[C@@H](NC(=O)[C@]2(C)CCCC=CCCCCCC[C@@](C)(NC(=O)[C@H](C)NC(=O)CNC(=O)[C@H](CCC(N)=O)NC(=O)[C@H](CC(C)C)NC(=O)[C@H](CC(C)C)NC(C)=O)C(=O)N[C@@H](CC(C)C)C(=O)N[C@@H](CC(C)C)C(=O)N[C@@H](CCCNC(=N)N)C(=O)N[C@@H](C)C(=O)N[C@@H](CC(C)C)C(=O)N[C@@H](C)C(=O)N2)C(C)C)[C@@H](C)CC)C(=O)N[C@@H](C(C)C)C(=O)N[C@@H](CC(C)C)C(=O)N[C@@H](CCCC)C(=O)N[C@@H](CO)C(=O)N[C@@H](CC(C)C)C(=O)N[C@@H](C(C)C)C(=O)N1)C(N)=O [SP-356] (Ac-LLQGA[R8]LLRALA[S5]VNIAA[R8]VL[Nle]SLV[S5]E[Nle]-NH2; staple 6-13, 19-26)",> 700
2,CCCC[C@H](NC(=O)[C@H](CCC(=O)O)NC(=O)[C@@H](NC(=O)[C@@H](NC(=O)[C@H](CC(C)C)NC(=O)[C@H](CO)NC(=O)[C@H](CCCC)NC(=O)[C@H](CC(C)C)NC(=O)[C@@H](NC(=O)[C@H](CCC(=O)O)NC(=O)[C@H](CCC(=O)O)NC(=O)[C@H](CC(=O)O)NC(=O)[C@@H](NC(=O)[C@H](CC(N)=O)NC(=O)[C@@H](NC(=O)[C@H](CCC(N)=O)NC(=O)[C@H](CC(=O)O)NC(=O)[C@H](CC(C)C)NC(=O)[C@H](C)NC(=O)[C@H](CCCNC(=N)N)NC(=O)[C@H](CC(C)C)NC(=O)[C@H](CC(C)C)NC(=O)[C@H](CCC(=O)O)NC(=O)[C@H](CCC(=O)O)NC(=O)CNC(=O)[C@H](CCC(N)=O)NC(=O)[C@H](CC(C)C)NC(=O)[C@H](CC(C)C)NC(C)=O)C(C)C)[C@@H](C)CC)C(C)C)C(C)C)[C@@H](C)CC)C(N)=O [SP-333] (Ac-LLQGEELLRALDQVNIDEEVL[Nle]SLVIE[Nle]-NH2),400 to 700
3,CCCC[C@H](NC(=O)[C@H](CCC(=O)O)NC(=O)[C@@H](NC(=O)[C@@H](NC(=O)[C@H](CC(C)C)NC(=O)[C@]1(C)CCCC=CCCC[C@](C)(NC(=O)[C@H](CCC(=O)O)NC(=O)[C@H](CC(=O)O)NC(=O)[C@@H](NC(=O)[C@H](Cc2ccccc2)NC(C)=O)[C@@H](C)CC)C(=O)N[C@@H](C(C)C)C(=O)N[C@@H](CC(C)C)C(=O)N[C@@H](CCCC)C(=O)N1)C(C)C)[C@@H](C)CC)C(=O)N[C@@H](C)C(=O)N[C@@H](CC(C)C)C(=O)N[C@@H](CCCCN)C(=O)N[C@@H](CCCCN)C(N)=O [SP-133] (Ac-FIDE[S5]VL[Nle][S5]LVIE[Nle]ALKK-NH2; staple 5-9),> 700
4,CCCC[C@H](NC(=O)[C@H](CCC(=O)O)NC(=O)[C@]1(C)CCCC=CCCCCCC[C@@](C)(NC(=O)[C@H](CCC(=O)O)NC(=O)[C@H](CC(=O)O)NC(=O)[C@@H](NC(=O)[C@H](Cc2ccccc2)NC(C)=O)[C@@H](C)CC)C(=O)N[C@@H](C(C)C)C(=O)N[C@@H](CC(C)C)C(=O)N[C@@H](CCSC)C(=O)N[C@@H](CO)C(=O)N[C@@H](CC(C)C)C(=O)N[C@@H](C(C)C)C(=O)N1)C(=O)NCC(N)=O [SP-186] (Ac-FIDE[R8]VLMSLV[S5]E[Nle]G-NH2; staple 5-12),> 700
5,CC[C@H](C)[C@H](NC(=O)[C@H](Cc1ccccc1)NC(C)=O)C(=O)N[C@@H](CC(=O)O)C(=O)N[C@@H](CCC(=O)O)C(=O)N[C@]1(C)CCCCCCC=CCCC[C@@](C)(C(=O)N[C@@H](CCC(=O)O)C(=O)N[C@@H](CCSC)C(=O)NCC(=O)N[C@@H](CC(C)C)C(N)=O)NC(=O)[C@H](C(C)C)NC(=O)[C@H](CC(C)C)NC(=O)[C@H](CO)NC(=O)[C@H](CCSC)NC(=O)[C@H](CC(C)C)NC(=O)[C@H](C(C)C)NC1=O [SP-187] (Ac-FIDE[R8]VLMSLV[S5]EMGL-NH2; staple 5-12),> 700
6,CC[C@H](C)[C@H](NC(=O)[C@H](Cc1ccccc1)NC(C)=O)C(=O)N[C@@H](CC(=O)O)C(=O)N[C@@H](CCC(=O)O)C(=O)N[C@]1(C)CCCCCCC=CCCC[C@@](C)(C(=O)N[C@@H](CCC(=O)O)C(=O)N[C@@H](CCSC)C(=O)NCC(=O)N[C@@H](CC(C)C)C(=O)N[C@@H](CC(=O)O)C(=O)N[C@@H](CCCNC(=N)N)C(N)=O)NC(=O)[C@H](C(C)C)NC(=O)[C@H](CC(C)C)NC(=O)[C@H](CO)NC(=O)[C@H](CCSC)NC(=O)[C@H](CC(C)C)NC(=O)[C@H](C(C)C)NC1=O [SP-189] (Ac-FIDE[R8]VLMSLV[S5]EMGLDR-NH2; staple 5-12),> 700
7,CSCC[C@@H]1NC(=O)[C@H](CC(C)C)NC(=O)[C@H](C(C)C)NC(=O)[C@](C)(NC(=O)[C@H](CCC(=O)O)NC(=O)[C@@H](NC(=O)[C@H](CC(C)C)NC(C)=O)[C@@H](C)O)CCCCCCC=CCCC[C@@](C)(C(=O)N[C@@H](CO)C(=O)N[C@@H](C)C(=O)N[C@@H](C)C(N)=O)NC(=O)[C@H](C(C)C)NC(=O)[C@H](CC(C)C)NC(=O)[C@H](CO)NC1=O [SP-181] (Ac-LTE[R8]VLMSLV[S5]SAA-NH2; staple 4-11),> 700
8,"CCCC[C@@H]1NC(=O)[C@](C)(NC(=O)[C@@H](NC(=O)[C@H](CCC(=O)O)NC(=O)[C@H](CCC(=O)O)NC(=O)[C@H](CC(=O)O)NC(=O)[C@@H](NC(=O)[C@H](CC(N)=O)NC(=O)[C@@H](NC(=O)[C@H](CCC(N)=O)NC(=O)[C@H](CC(=O)O)NC(=O)[C@H](CC(C)C)NC(=O)[C@H](C)NC(=O)[C@H](CCCNC(=N)N)NC(=O)[C@]2(C)CCCC=CCCC[C@](C)(NC(=O)[C@H](CCC(N)=O)NC(=O)[C@H](CC(C)C)NC(=O)[C@H](CC(C)C)NC(C)=O)C(=O)N[C@@H](CCC(=O)O)C(=O)N[C@@H](CCC(=O)O)C(=O)N[C@@H](CC(C)C)C(=O)N2)C(C)C)[C@@H](C)CC)C(C)C)CCCCCCC=CCCC[C@@](C)(C(=O)NCC(N)=O)NC(=O)[C@H](CCC(=O)O)NC(=O)[C@H]([C@@H](C)CC)NC(=O)[C@H](C(C)C)NC(=O)[C@H](CC(C)C)NC(=O)[C@H](CO)NC1=O [SP-314] (Ac-LLQ[S5]EEL[S5]RALDQVNIDEEV[R8][Nle]SLVIE[S5]G-NH2; staple 4-8, 21-28)",> 700
9,CCCC[C@@H]1NC(=O)[C@H](CC(C)C)NC(=O)[C@H](C(C)C)NC(=O)[C@@](C)(NC(=O)[C@H](CCC(=O)O)NC(=O)[C@H](CC(=O)O)NC(=O)[C@@H](NC(=O)[C@H](Cc2ccccc2)NC(C)=O)[C@@H](C)CC)CCCC=CCCCC2(CCCC=CCCC[C@](C)(C(=O)N[C@@H](CCCC)C(=O)N[C@@H](C)C(=O)N[C@@H](CC(C)C)C(N)=O)NC(=O)[C@H]([C@@H](C)CC)NC(=O)[C@H](C(C)C)NC(=O)[C@H](CC(C)C)NC2=O)NC1=O (some centres unmarked) [SP-204],> 700
10,CC[C@H](C)[C@H](NC(=O)[C@H](Cc1ccccc1)NC(C)=O)C(=O)N[C@@H](CC(=O)O)C(=O)N[C@@H](CCC(=O)O)C(=O)N[C@]1(C)CCCCCCC=CCCC[C@@](C)(C(=O)N[C@@H](CCC(=O)O)C(=O)N[C@@H](CCSC)C(=O)NCC(N)=O)NC(=O)[C@H](C(C)C)NC(=O)[C@H](CC(C)C)NC(=O)[C@H](CO)NC(=O)[C@H](C)NC(=O)[C@H](CC(C)C)NC(=O)[C@H](C(C)C)NC1=O [SP-184] (Ac-FIDE[R8]VLASLV[S5]EMG-NH2; staple 5-12),> 700
11,"CCCC[C@H](NC(=O)[C@H](CCC(=O)O)NC(=O)[C@@H](NC(=O)[C@]1(C)CCCC=CCCC[C@](C)(NC(=O)[C@@H](NC(=O)[C@H](CCC(=O)O)NC(=O)[C@H](CCC(=O)O)NC(=O)[C@H](CC(=O)O)NC(=O)[C@@H](NC(=O)[C@H](CC(N)=O)NC(=O)[C@@H](NC(=O)[C@H](CCC(N)=O)NC(=O)[C@H](CC(=O)O)NC(=O)[C@H](CC(C)C)NC(=O)[C@H](C)NC(=O)[C@H](CCCNC(=N)N)NC(=O)[C@]2(C)CCCC=CCCC[C@](C)(NC(=O)[C@H](CCC(N)=O)NC(=O)[C@H](CC(C)C)NC(=O)[C@H](CC(C)C)NC(C)=O)C(=O)N[C@@H](CCC(=O)O)C(=O)N[C@@H](CCC(=O)O)C(=O)N[C@@H](CC(C)C)C(=O)N2)C(C)C)[C@@H](C)CC)C(C)C)C(=O)N[C@@H](CCCC)C(=O)N[C@@H](CO)C(=O)N[C@@H](CC(C)C)C(=O)N1)[C@@H](C)CC)C(=O)NCC(N)=O [SP-302] (Ac-LLQ[S5]EEL[S5]RALDQVNIDEEV[S5][Nle]SL[S5]IE[Nle]G-NH2; staple 4-8, 21-25)",> 700
